Values quoted from earlier work, collected in patent US20250288613A1, “COMPOSITIONS AND METHODS TARGETING SAT1 FOR ENHANCING ANTI-TUMOR IMMUNITY DURING TUMOR PROGRESSION” (THE BRIGHAM AND WOMEN’S HOSPITAL, INC., priority 2022, published 2025).

Molecular target: human spermidine/spermine acetyltransferase (SSAT) (Homo sapiens, UniProt P21673)
Settings: competitive inhibition; spermidine as substrate

Chain of human spermidine/spermine acetyltransferase (SSAT) (P21673 whole entry): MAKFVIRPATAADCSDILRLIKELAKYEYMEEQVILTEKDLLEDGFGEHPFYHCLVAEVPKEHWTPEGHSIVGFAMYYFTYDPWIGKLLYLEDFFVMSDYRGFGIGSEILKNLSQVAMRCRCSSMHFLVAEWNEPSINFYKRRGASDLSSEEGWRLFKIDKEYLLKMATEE

Ki [nM]	SMILES
2400	N=C(N)c1ccc(OCCCCCOc2ccc(C(=N)N)cc2)cc1 [Pentamidine]
2000	N=C(N)c1ccc(/N=N/Nc2ccc(C(=N)N)cc2)cc1 [berenil, 4,4′-(1-Triazene-1,3-diyl)bis(benzenecarboximidamide)]
